Assay results from patent US12649980B2, “Three-dimensional surface for protein and small molecule microarrays” (The Johns Hopkins University, priority 2019, dated 2026).

Tests used:
GLUT1 [1] = target: T1, GLUT1 (Homo sapiens, UniProt P11166); test: rapafucin 2D microarray screen with GLUT1-containing cell lysate; assay type: binding; conditions: signal-to-background ratio, 2D surface, same lysate and conditions
T1 construct: The full-length human SLC2A1, SLC2A3, and SLC2A4 genes were PCR amplified and inserted into pLenti6M vector 2; expressed in transfected cells
T1 sequence (P11166 1-492): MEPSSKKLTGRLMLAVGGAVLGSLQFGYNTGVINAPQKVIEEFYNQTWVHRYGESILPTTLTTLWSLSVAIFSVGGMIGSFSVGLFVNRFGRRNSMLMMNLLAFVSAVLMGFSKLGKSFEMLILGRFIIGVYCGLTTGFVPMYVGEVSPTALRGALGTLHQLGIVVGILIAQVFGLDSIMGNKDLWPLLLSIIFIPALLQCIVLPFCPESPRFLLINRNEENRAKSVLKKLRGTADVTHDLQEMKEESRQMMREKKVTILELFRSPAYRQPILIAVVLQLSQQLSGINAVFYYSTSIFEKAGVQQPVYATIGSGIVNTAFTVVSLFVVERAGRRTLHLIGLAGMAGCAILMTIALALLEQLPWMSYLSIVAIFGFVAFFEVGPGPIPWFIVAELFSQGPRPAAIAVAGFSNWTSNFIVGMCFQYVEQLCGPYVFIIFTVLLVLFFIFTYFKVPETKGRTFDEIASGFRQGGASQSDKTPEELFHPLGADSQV
From the text: (§1) Once stock solutions of the rapafucin library were arrayed on the 2D or 3D surface and most of solvent carrier was evaporated, the crosslinking reaction was initiated by irradiating the surfaces with 365-nm wavelength UV light. Kawatani and Osada, Medchemcomm 2014, 5, 277-287. […] To screen for GLUT1-interacting rapafucins, GLUT1 was stably overexpressed in HEK293T cells and generated cell lysates containing detergent-solubilized recombinant GLUT1 (FIG. 10). The GLUT1-containing cell lysate was then incubated on both 2D and 3D rapafucin microarrays. After washing the slides to remove unbound proteins, the bound GLUT1 protein was detected with anti-GLUT1 antibodies, followed by visualization with Cy5-labeled secondary antibodies using a microarray scanner. Rapafucins were scored as positive hits when the corresponding SBR was greater than 3. Based on this criterion, a total of 17 rapafucin hits and one positive control BAY-876, a specific GLUT1 inhibitor, Siebeneicher et al., ChemMedChem 2016, 11, 2261-2271, were identified on the 3D rapafucin microarray. In contrast, only one hit (WL13-F11, also among the 17 hits identified from the 3D rapafucin microarray) was identified on the 2D rapafucin microarray (Table 1, FIG. 11).
(§2) In the optimization experiments, the slides were incubated with 50 nM purified recombinant FKBP12 for 1 hour, while in the GLUT1 screening, 10 mg/mL of cell lysate containing DDM-solubilized GLUT1 from GLUT1 overexpressed HEK293T was incubated for 1 hour. Successively, primary antibody and CY5 labeled secondary antibody were added for 1 hour. The chips were washed in buffer A for 5 mins 3 times after the sample and antibodies incubation. After centrifugation, the dried chips were scanned by a microarray scanner (Genepix, US) at 635-nm wavelength. The final result was analyzed by GenePix software.

DLD1 WT = test: [3H]-2DG uptake in DLD1 WT cells; assay type: cell-based
Method: (§3) The inhibitory activity of compounds on glucose transport was analyzed by measuring the cell uptake of [3H]-2DG as previously described. Ulanovskaya et al., Chem. Biol. 2011, 18, 222-230. Briefly, cells were washed twice and incubated in low-glucose medium for 10 min. Cells were added drugs and incubated for another 10 min before adding [3H]-2DG. After 10 min incubation with [3H]-2DG, cells were washed twice and lysed with 0.2 N NaOH plus 0.2% SDS. The cell lysate was transferred to a new tube containing 1 mL of optiphase supermix. Glucose uptake was quantified with a scintillation counter.

GLUT1 [2] = target: T1, GLUT1; test: rapafucin 3D microarray screen with GLUT1-containing cell lysate; assay type: binding; conditions: signal-to-background ratio, 3D surface, lysate of GLUT1-overexpressing HEK293T; hit if SBR > 3
From the text: as §1
The amine substrates (Arrayit, SMM) were immerged in a mixture of 2-bromoisobutyryl bromide (BIBB, 0.1 mM, as initiator) and propionyl bromide (10 mM, as horizontal spacer) with triethylamine (15 mM) in DCM for 4 hours. A degassed polymerization reaction mixture, containing copper (II) chloride dihydrate (CuCl2, 4 mmol), 2,2′-bipyridine (2 mmol), 75 mmol monomers mixture of 2-(dimethylamino)ethyl methacrylate (DMAEMA) and poly(ethylene glycol) methacrylate (PEGMA Mn 360) in 500 mL Milli-Q/MeOH, was mixed with freshly made ascorbic acid (4 mmol). The mixture was applied to 50 slides for 6 hours under the argon atmosphere for the surface-initiated polymerization. A gradient ratio of PEGMA and DMAEMA was set, including 10:0, 8:2, 5:5, 2:8 and 0:10 for an optimization purpose. The terminals of the brushes were further functionalized by N,N′-disuccinimidyl carbonate (DSC, 10 mM) and 4-dimethylaminopyridine (DMAP,10 mM) in DMF overnight to form succinimidyl carbonate intermediate, and, successively, diazirine linker 1 (10 mM) and N,Ndiisopropylethylamine (DIPEA, 50 mM) in DMF for 2 hours to couple the photoaffinity linker in dark at room temperature. At the end, the substrates were immerged in a 50 mM ethanolamine in DMF to block the residual carboxylic moiety. The slides were thoroughly washed by DMF, EtOH and DCM and dried in a fuming cupboard and ready for spotting.
10 mM of rapafucins in DMSO from the library were spotted onto the slides with a high-precision microarrayer (Nanoprint, Arrayit, CA) for a desired pattern in dark, which was loaded with 16 100-μm diameter micro-spotting pins. The pin heads were thoroughly washed and sonicated in ethanol and dried for 4 times under a compassed air between each sample loading. After overnight evaporation, the slides were exposed to 365-nm wavelength UV irradiation for 4 J/cm^2 by CL-1000L UV crosslinker (UVP, CA) for rapafucins covalent immobilization. The slides were ultrasonic cleaned successively in DCM, MeOH and Milli-Q water and stored in a −20° C. freezer.
as §2

DLD1 GLUT1 KO = test: [3H]-2DG uptake in DLD1 GLUT1 knockout cells; assay type: cell-based; conditions: for inhibitory activity in GLUT1 knock out cells: DLD-1 GLUT1 knock out versus wild type
Method: as §3

A549 cells = test: [3H]-2DG uptake assay in A549 cells; assay type: cell-based, human; conditions: 10 min incubation with compound, mean ± s.d., n = 3
Method: To determine which of the 17 rapafucin hits inhibited the transporter activity of GLUT1, an orthogonal glucose uptake assay using 2-deoxy-D-[3H] glucose ([3H]-2DG), a nonhydrolyzable, radioactive glucose analog, was employed. Each hit was separately incubated with A549 cells for 10 min before the amount of [3H]-2DG taken up by the cells was measured using scintillation counting. […] The effect of JW11-D2 on uptake of [3H]-2DG in human red blood cells that exclusively express GLUT1 was then determined. Helgerson and Carruthers, J. Biol. Chem. 1987, 262, 5464-5475. […] To further improve the potency of JW11-D2, a structure-activity relationship (SAR) study was performed by synthesizing 21 new analogs of JW11-D2 using different amino acid building blocks.
as §3

GLUT4 = GLUT4 (Homo sapiens, UniProt P14672); test: biotin-RgA pull-down assay, GLUT4; conditions: lysate of HEK293T overexpressing GLUT4, Western blot
Method: (§4) It was further determined whether RgA is specific for GLUT1 using a pair of isogenic cell lines.
(§5) GLUT1 or other isoforms overexpression HEK293T cells were washed once in buffer A (10 mM Tris-HCl, 150 mM KCl, 5 mM MgCl2, 1 mM EGTA, pH 7.4). To extract GLUT1 or isoforms protein, cells were mixed in buffer C (10 mM Tris-HCl, 150 mM KCl, 5 mM MgCl2, 1% DDM, 5% glycerol, 1 mM EGTA, protease inhibitor, pH 7.4) and incubated on ice for 1 h with frequent mixing. The supernatant was collected by centrifugation at 17,000 g for 10 min at 4° C., and then diluted four-fold in buffer A plus 5% glycerol to reduce the concentration of DDM. The diluted supernatant was quantified by protein assay kit and pre-incubated with streptavidin agarose beads at 4° C. for 30 min to remove the endogenous streptavidin-binding proteins. The supernatant was collected by centrifugation at 2,000 rpm for 1 min at 4° C., and diluted to 10 mg/mL for pull-down experiment. For a typical biotin pull- down reaction, 300 μL of supernatant was pretreated with competitor or equal volume of DMSO (as noted hereinabove) for 30 min, before the addition of RgA biotin probe or DMSO (as noted hereinabove). After incubation at 4° C. for 1 h with frequent mixing, 30 μL of streptavidin agarose beads in buffer A was added, and incubation was continued for 2 h. […]

GLUT3 = GLUT3 (Homo sapiens, UniProt P11169); test: biotin-RgA pull-down assay, GLUT3; conditions: lysate of HEK293T overexpressing GLUT3, Western blot
Method: as §4, §5

GLUT1 [3] = target: T1, GLUT1; test: biotin-RgA pull-down and biotin probe competition binding assay, GLUT1; conditions: lysate of HEK293T overexpressing GLUT1, Western blot
Method: Next, the binding affinity of RgA for GLUT1 was determined using a RgA biotin pull-down assay. A biotin-RgA conjugate was synthesized by tethering the biotin moiety through carbon:carbon double bond in the FKBP-binding domain of RgA (FIG. 13). […] Using the biotin-RgA conjugate, a pulldown experiment with cell lysate containing detergent-solubilized GLUT1 protein prepared from HEK293T cells overexpressing GLUT1 was performed, followed by Western blot analysis with a GLUT1-specific antibody.
The estimation of Kd value for RgA was determined with the biotin probe competition binding assay. […] After western blot, band intensities were quantified by densitometry analysis using Image J software. The assay was repeated three times. GraphPad Prism (v4.03) software was used to determine apparent Kd value for RgA using a nonlinear regression.

[4] = test system: glutathione S-transferases; conditions: Yamada and Kaplowitz 1980; cited from earlier work

Chain of GLUT3 (P11169 whole entry): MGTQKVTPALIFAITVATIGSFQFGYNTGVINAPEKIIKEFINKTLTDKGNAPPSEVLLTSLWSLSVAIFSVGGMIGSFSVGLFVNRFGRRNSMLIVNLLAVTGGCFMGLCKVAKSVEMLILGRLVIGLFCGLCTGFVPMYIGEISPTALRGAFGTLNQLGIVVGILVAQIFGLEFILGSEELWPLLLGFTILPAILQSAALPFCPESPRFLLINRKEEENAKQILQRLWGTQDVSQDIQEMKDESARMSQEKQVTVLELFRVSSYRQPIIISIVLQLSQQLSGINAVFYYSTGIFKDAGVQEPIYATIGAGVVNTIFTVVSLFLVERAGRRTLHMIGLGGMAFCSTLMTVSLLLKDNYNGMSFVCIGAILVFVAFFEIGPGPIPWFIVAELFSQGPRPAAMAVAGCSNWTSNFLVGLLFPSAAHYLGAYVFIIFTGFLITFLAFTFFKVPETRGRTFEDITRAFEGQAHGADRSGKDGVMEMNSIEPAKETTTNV
Chain of GLUT4 (P14672 whole entry): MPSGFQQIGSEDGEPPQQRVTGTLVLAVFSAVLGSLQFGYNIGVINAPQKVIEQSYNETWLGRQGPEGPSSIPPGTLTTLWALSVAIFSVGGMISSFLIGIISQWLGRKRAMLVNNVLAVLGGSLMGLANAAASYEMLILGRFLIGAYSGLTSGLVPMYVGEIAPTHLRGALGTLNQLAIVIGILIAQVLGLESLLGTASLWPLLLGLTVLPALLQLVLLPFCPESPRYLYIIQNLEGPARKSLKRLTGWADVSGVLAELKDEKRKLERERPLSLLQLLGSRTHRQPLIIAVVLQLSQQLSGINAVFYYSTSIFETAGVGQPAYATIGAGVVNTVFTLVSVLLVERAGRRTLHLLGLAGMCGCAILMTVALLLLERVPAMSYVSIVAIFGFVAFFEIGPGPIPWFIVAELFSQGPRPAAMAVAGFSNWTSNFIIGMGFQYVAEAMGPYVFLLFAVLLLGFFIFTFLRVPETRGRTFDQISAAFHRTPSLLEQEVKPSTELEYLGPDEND

SMILES | 2D SBR (GLUT1 [1]) | 3D SBR (GLUT1 [2]) | IC50 (A549 cells) | other results
Cc1c(NC(=O)c2cc(C(N)=O)nc3cc(F)ccc23)c(C(F)(F)F)nn1Cc1ccc(C#N)cc1 [BAY-876] | <3.0 | 3.2 ± 0.74 |  | EC50 (DLD1 WT; Homo sapiens, DLD-1, DLD1 wild type): 8 ± 1.1 nM; inhibitory activity in GLUT1 knock out cells (DLD1 GLUT1 KO): lost its inhibitory activity; EC50 (DLD1 GLUT1 KO; Homo sapiens, DLD-1, DLD1 GLUT1 knockout): > 1000 nM
C=C1[C@@H](C)[C@H]2[C@H](Cc3ccccc3)NC(=O)[C@]23OC(=O)/C=C/[C@H](O)CCC[C@@H](C)C/C=C/[C@H]3[C@@H]1O [Cytochalasin B, cytochalasin B] |  |  |  | EC50 (DLD1 WT; DLD1 wild type): 545 ± 40.5 nM; EC50 (DLD1 GLUT1 KO; DLD1 GLUT1 knockout): 390 ± 32.7 nM; inhibitory activity in GLUT1 knock out cells (DLD1 GLUT1 KO): maintained its inhibitory activity
COc1ccc(CC[C@H]2OC(=O)[C@@H]3CCCCN3C(=O)C(=O)C(C)(C)COC(=O)C=CCCN(C)C(=O)CNC(=O)CN(C)C(=O)[C@H](Cc3ccc(O)cc3)NC(=O)[C@@H](Cc3ccccc3)N(C)C(=O)COc3cccc2c3)cc1OC [WL03-G11] | <3.0 | 5.1 ± 0.7 | > 3000 nM | 
COc1ccc(CC[C@H]2OC(=O)[C@@H]3CCCCN3C(=O)C(=O)C(C)(C)COC(=O)C=CCCN(C)C(=O)[C@H](Cc3ccccc3)N(C)C(=O)CCNC(=O)CN(C)C(=O)[C@H](Cc3ccc(O)cc3)NC(=O)COc3cccc2c3)cc1OC [WL05-D8] | <3.0 | 6.4 ± 1.8 | > 3000 nM | 
CCCC[C@H]1C(=O)N2CCC[C@@H]2C(=O)N(C)CCC=CC(=O)OCC(C)(C)C(=O)C(=O)N2CCCC[C@H]2C(=O)O[C@H](CCc2ccc(OC)c(OC)c2)c2cccc(c2)OCC(=O)N(C)CC(=O)N[C@H](Cc2ccc(NC(=O)OC(C)(C)C)cc2)C(=O)N1C [WL11-E7] | <3.0 | 4.8 ± 0.5 | > 3000 nM | 
CCCC[C@H]1C(=O)N2CCC[C@@H]2C(=O)N(C)CCC=CC(=O)OCC(C)(C)C(=O)C(=O)N2CCCC[C@H]2C(=O)O[C@H](CCc2ccc(OC)c(OC)c2)c2cncc(c2)OCC(=O)N(C)CC(=O)N[C@@H](Cc2ccccc2)C(=O)N1C [WL11-G9] | <3.0 | 3.9 ± 0.3 | > 3000 nM | 
COc1ccc(CC[C@H]2OC(=O)[C@@H]3CCCCN3C(=O)C(=O)C(C)(C)COC(=O)C=CCCN(C)C(=O)[C@H]3CCCN3C(=O)[C@H](C(C)C)N(C)C(=O)[C@H](Cc3ccc([N+](=O)[O-])cc3)NC(=O)CN(C)C(=O)COc3cccc2c3)cc1OC [WL12-G5] | <3.0 | 8.8 ± 2.0 | > 3000 nM | 
CCC(C)C1C(=O)NCC(=O)N(C)CCC(SCCCSCC(=O)NCCOCCOCCNC(=O)CCCCC2SCC3NC(=O)NC32)CC(=O)OCC(C)(C)C(=O)C(=O)N2CCCCC2C(=O)OC(CCc2ccc(OC)c(OC)c2)c2cccc(c2)NC(=O)CCC(=O)N(C)C(CC(C)C)C(=O)NC(Cc2ccccc2)C(=O)N1C (stereo not shown) [biotin-RgA] |  |  | 211 nM | pulldown of GLUT4 (GLUT4): able to pull down both GLUT3 and GLUT4; pulldown of GLUT3 (GLUT3): able to pull down both GLUT3 and GLUT4; pulldown of GLUT1 (GLUT1 [3]): capable of pulling down GLUT1
C=C(CC)C(=O)c1ccc(OCC(=O)O)c(Cl)c1Cl [ethacrynic acid] |  |  |  | proportion of bound ethacrynic acid that was bound covalently [4]: 13.5%
